Like-named read-outs stand apart in the source and are kept apart here.
What was measured:
[1] = target: Cys242 in human PIK3CA (157-299) (Homo sapiens (Human), UniProt P42336); experiment: Covalent modification assay using MALDI-TOF MS; type: biochemical; conditions: 4 h reaction time point
How it was run: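 Covalent adduct formation was read by linear-mode MALDI-TOF with sinapinic acid matrix, reported as modified-protein peak height divided by total protein peak heights. Reactions held PIK3CA (157-299) at 1 or 3.33 μM in HEPES/NaCl/MgCl2 buffer, pH 7.3, sampled after 15 min to 4 h at room temperature.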

pAKT in BT474 cells = experiment: Cell-based pAKT HTRF assay in BT474 cells; conditions: BT474 cells, 4 hr incubation, read-out: pAKT inhibition IC50 in BT474 cells
How it was run: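 BT474 cells in DMEM/10% FBS were treated the day after seeding with a 9-point, 3-fold compound series from 3 μM (0.25% DMSO) for 4 hr. Lysates were mixed with d2 and Eu cryptate anti-pAKT antibodies and incubated 4-24 h at room temperature. HTRF was read with excitation at 320 nm and emission at 615 nm.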

[2] = 3.33 μM protein target, 1:7.5 protein to compound ratio (compounds 1-852)
[3] = 1 μM protein target, 1:5 protein to compound ratio (compounds 853-1279)
[4] = Homo sapiens, BT-474, Compounds 10-999

Sequence of Cys242 in human PIK3CA (157-299) (P42336 157-299): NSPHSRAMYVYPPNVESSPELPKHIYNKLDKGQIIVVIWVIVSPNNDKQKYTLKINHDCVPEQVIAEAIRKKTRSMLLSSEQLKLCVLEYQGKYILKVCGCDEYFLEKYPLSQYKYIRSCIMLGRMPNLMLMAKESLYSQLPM

Structure (SMILES)	% of modification [1, 2]	IC50 (pAKT in BT474 cells; Compounds 10-999)	% of modification [1, 3]	IC50 (pAKT in BT474 cells; Compounds 1000-1279)	IC50 (pAKT in BT474 cells; [4])
C=CC(=O)N1CCc2nc(-c3nc(-c4ccc5c(c4)CNC5=O)c4ccsc4c3-c3c(F)cc(F)cc3OC(C)C)sc2C1 (single isomer, unassigned) [Compound 414]	A (percent of modification of PIK3CA protein ≥75%)	< 0.1 µM	–	–	–
C=CC(=O)N1CCn2nc(-c3nc(-c4ccc5ncn(C)c5c4)c4ccsc4c3-c3c(F)cc(F)cc3OC[C@@H](C)O)cc2[C@H]1C [Compound 748]	A (percent of modification of PIK3CA protein ≥75%)	< 0.1 µM	–	–	–
C=CC(=O)N1CCn2nc(-c3nc(-c4cccc(C#N)c4)c4ccsc4c3-c3ccc(F)cc3OCCOC)cc2C1 [Compound 270]	A (percent of modification of PIK3CA protein ≥75%)	< 0.1 µM	–	–	–
C=CC(=O)N1CCn2nc(-c3nc(-c4cn(C)cn4)c4ccsc4c3-c3c(F)cc(F)cc3OCC(C)O)cc2C1C (stereo not drawn) [Compound 833]	A (percent of modification of PIK3CA protein ≥75%)	< 0.1 µM	–	–	–
C=CC(=O)N1Cc2cc(-c3nc(-c4ccc(=O)n(CCN(C)C)c4)c4ccsc4c3-c3c(F)cc(F)cc3OCCOC)nn2C[C@H]1C [Compound 880]	–	< 0.1 µM	A (percent of modification of PIK3CA protein ≥75%)	–	–
C=CC(=O)N1Cc2cc(-c3nc(-c4cnn(C)c(=O)c4)c4ccsc4c3-c3c(F)cc(F)cc3OCCOC)nn2C[C@H]1C [Compound 793]	A (percent of modification of PIK3CA protein ≥75%)	< 0.1 µM	–	–	–
C=CC(=O)N1CCc2ncc(-c3nc(-c4ccc5c(c4)CCN(C)CC5)c4ccsc4c3-c3c(F)cc(F)cc3OCCOC)cc2C1 [Compound 1085]	–	–	A (percent of modification of PIK3CA protein ≥75%)	< 0.1 µM	–
C=CC(=O)N1CCn2nc(-c3nc(N4CC5CCC(C4)N5C(C)=O)c4ccsc4c3-c3c(F)cc(F)cc3OCCOC)cc2C1C (stereo not drawn) [Compound 1064]	–	–	C (25%≤percent of modification <50%)	0.1 to 1 µM	–
C=CC(=O)N1CCc2nc(-c3nc(-c4cnn(C)c4)c4ccsc4c3-c3ccc(F)cc3OCC3CCN(C)C(=O)C3)sc2C1 (stereo not drawn) [Compound 221]	A (percent of modification of PIK3CA protein ≥75%)	< 0.1 µM	–	–	–
C=CC(=O)N1Cc2cc(-c3nc(-c4cnc(C)nc4)c4ccsc4c3-c3c(F)cc(F)cc3OCCO)nn2CC1C (stereo not drawn) [Compound 831]	A (percent of modification of PIK3CA protein ≥75%)	< 0.1 µM	–	–	–
C=CC(=O)N1CCc2nc(-c3nc(-c4ccc5c(c4)CCN(C)C5)c4ccsc4c3-c3c(F)cc(F)cc3OC(C)C)sc2C1 (single isomer, unassigned) [Compound 448]	A (percent of modification of PIK3CA protein ≥75%)	< 0.1 µM	–	–	–
C=CC(=O)N1CCn2nc(-c3nc(-c4cncc(CCN(C)C)c4)c4ccsc4c3-c3c(F)cc(F)cc3OCCOC)cc2C1C (stereo not drawn) [Compound 1245]	–	–	A (percent of modification of PIK3CA protein ≥75%)	< 0.1 µM	–
C=C(F)C(=O)N1CCn2nc(-c3nc(-c4ccc5c(c4)CNC5=O)c4ccsc4c3-c3c(F)cc(F)cc3OC(C)C)nc2C1 [Compound 315]	A (percent of modification of PIK3CA protein ≥75%)	< 0.1 µM	–	–	–
C=CC(=O)N1CCn2nc(-c3nc(-c4ccc5c(c4)CCNC5)c4ccsc4c3-c3ccc(F)cc3OCCOC)nc2C1 [Compound 105, 1-[2-[7-[4-fluoro-2-(2-methoxyethoxy)phenyl]-4-(1,2,3,4-tetrahydroisoquinolin-6-yl)thieno[3,2-c]pyridin-6-yl]-6,8-dihydro-5H-[1,2,4]triazolo[1,5-a]pyrazin-7-yl]prop-2-en-1-one]	A (percent of modification of PIK3CA protein ≥75%)	–	–	–	< 0.1 µM
C=CC(=O)N1Cc2cc(-c3nc(-c4ccc5c(c4)CNC5=O)c4ccsc4c3-c3c(F)cc(F)cc3OCCOC)nn2C[C@H]1C [Compound 691]	A (percent of modification of PIK3CA protein ≥75%)	< 0.1 µM	–	–	–
C=CC(=O)N1CC(n2cc(-c3nc(C4=CCN(S(C)(=O)=O)CC4)c4ccsc4c3-c3ccc(F)cc3OC)cn2)C1 [Compound 299]	A (percent of modification of PIK3CA protein ≥75%)	0.1 to 1 µM	–	–	–
C=CC(=O)N1CCn2nc(-c3nc(-c4ccc5c(c4)CCN(C)C5=O)c4ccsc4c3-c3c(F)cc(F)cc3OCCOC)cc2[C@@H]1C [Compound 974]	–	0.1 to 1 µM	D (percent of modification <25%)	–	–
C=CC(=O)N1CCn2nc(-c3nc(-c4ccc5c(c4)CCN(C(C)C)C5)c4ccsc4c3-c3ccc(F)cc3OCCOC)cc2C1 [Compound 190, 1-[2-[7-[4-fluoro-2-(2-methoxyethoxy)phenyl]-4-(2-isopropyl-3,4-dihydro-1H-isoquinolin-6-yl)thieno[3,2-c]pyridin-6-yl]-6,7-dihydro-4H-pyrazolo[1,5-a]pyrazin-5-yl]prop-2-en-1-one]	A (percent of modification of PIK3CA protein ≥75%)	–	–	–	< 0.1 µM
C=CC(=O)N1CCn2nc(-c3nc(-c4ccc5c(c4)[nH]c(=O)n5C)c4ccsc4c3-c3c(F)cc(F)cc3OCCOC)cc2C1C (stereo not drawn) [Compound 1092]	–	–	A (percent of modification of PIK3CA protein ≥75%)	< 0.1 µM	–
C=CC(=O)N1CCn2nc(-c3nc(-c4ccc(CC(=O)N(C)C)cc4)c4ccsc4c3-c3c(F)cc(F)cc3OC)cc2[C@H]1C (single isomer, unassigned) [Compound 1146]	–	–	A (percent of modification of PIK3CA protein ≥75%)	< 0.1 µM	–
C=CC(=O)N1CCn2nc(-c3nc(-c4cnn(C)c4)c4ccsc4c3-c3c(F)cc(F)cc3OC[C@@H](C)O)cc2[C@H]1C [Compound 753]	A (percent of modification of PIK3CA protein ≥75%)	< 0.1 µM	–	–	–
C=CC(=O)N1CCc2nc(-c3nc(-c4cnn(C)c4)c4ccsc4c3-c3c(F)cc(F)cc3OCCO)sc2C1 [Compound 398]	A (percent of modification of PIK3CA protein ≥75%)	< 0.1 µM	–	–	–
C=CC(=O)N1CC(n2cc(-c3nc(-c4ccc5c(c4)CCNC5)c4ccnn4c3-c3ccc(F)cc3OC)cn2)C1 [Compound 169, 1-[3-[4-[7-(4-fluoro-2-methoxy-phenyl)-4-(1,2,3,4-tetrahydroisoquinolin-6-yl)pyrazolo[1,5-a]pyrazin-6-yl]pyrazol-1-yl]azetidin-1-yl]prop-2-en-1-one]	B (50%<percent of modification <75%)	–	–	–	0.1 to 1 µM
C=CC(=O)N1CCn2nc(-c3nc(-c4cnc5cnn(C)c5c4)c4ccsc4c3-c3c(F)cc(F)cc3OCCO)cc2C1C (stereo not drawn) [Compound 901]	–	< 0.1 µM	A (percent of modification of PIK3CA protein ≥75%)	–	–
C=CC(=O)N1CCc2nc(-c3nc(-c4ccc5c(c4)CNCCC5)c4ccsc4c3-c3ccc(F)cc3OCCOC)sc2C1 [Compound 168]	A (percent of modification of PIK3CA protein ≥75%)	< 0.1 µM	–	–	–
C=CC(=O)N1CCc2ncc(-c3nc(-c4cn(C)cn4)c4ccsc4c3-c3c(F)cc(F)cc3OCCOC)cc2C1 [Compound 943]	–	< 0.1 µM	A (percent of modification of PIK3CA protein ≥75%)	–	–
C=CC(=O)N1CCn2nc(-c3nc(-c4cnc5c(c4)CN(C)CC5)c4ccsc4c3-c3c(F)cc(F)cc3OCCOC)cc2C1C (stereo not drawn) [Compound 929]	–	< 0.1 µM	A (percent of modification of PIK3CA protein ≥75%)	–	–

Source: patent US20250230138A1, “COMPOUNDS HAVING A T-STRUCTURE FORMED BY AT LEAST FOUR CYCLES FOR USE IN THE TREATMENT OF CANCER AND OTHER INDICATIONS” (TheRas, Inc., priority 2022, published 2025)
